{"source": "patent US7629002B2", "about": "“Antimicrobial polymeric compositions and method of treatment using them” (Chemeq Ltd., priority 2000, dated 2009)", "key": {"[1]": {"tested_on": "A. niger", "assay": "MKC of preservatives and synergy (Example 14)", "assay_type": "cell-based", "details": "polymer 0.2% w/w", "description": "(§1) Overnight broths of challenge cultures were prepared and the Total Viable Count (TVC) of the overnight cultures was estimated.\n(§2) The samples were serially diluted 1 to 1 using sterile normal saline (5 mL). Sterile Hard Water (SHW) was used as diluent when testing samples containing EDTA.\n(§3) 1 part of each overnight culture was diluted in 9 parts diluent. The resulting diluted suspensions were used as the inocula.\n(§4) Inoculate each sample dilution with 100 μL of the diluted overnight culture. (One culture per tube). Mix well.\n(§5) The tubes were incubated for ≦24 hours at 37° C. (A. niger was incubated at 28° C. for ≦24 hours).\n(§6) From each test tube, 1 mL was subcultured into 9 mL of recovery broth and mixed well (Recovery Broths: Nutrient Broth+3% Tween 80 (NBT) for polymeric antimicrobial and EDTA; Nutrient Broth+3% Tween 80+(NBTA) for glutaraldehyde and, Letheen Broth (LB) for methyl parabens).\n(§7) The samples incubated at 37° C. for a further ≦48 hours. (28° C. for ≦5 days for A niger).\n(§8) Each tube was examined for growth. All tubes were then subcultured onto selective agar and incubated for ≦24 hours at 37° C. (28° C. for ≦5 days for A. niger). Growth on selective agar was taken to confirm growth of the test organism."}, "[2]": {"tested_on": "C. albicans", "assay": "MKC of preservatives and synergy (Example 14)", "assay_type": "cell-based", "details": "polymer 0.2% w/w, mix as ratio", "description": "as §1, §2, §3, §4, §5, §6, §7, §8"}, "[3]": {"tested_on": "E. coli", "assay": "MKC of preservatives and synergy (Example 14)", "assay_type": "cell-based", "description": "as §1, §2, §3, §4, §5, §6, §7, §8"}, "[4]": {"tested_on": "P. aeruginosa", "assay": "MKC of preservatives and synergy (Example 14)", "assay_type": "cell-based", "description": "as §1, §2, §3, §4, §5, §6, §7, §8"}, "[5]": {"tested_on": "S. aureus", "assay": "MKC of preservatives and synergy (Example 14)", "assay_type": "cell-based", "description": "as §1, §2, §3, §4, §5, §6, §7, §8"}, "[6]": {"details": "in vivo", "text": "Chickens treated each of the antimicrobials were compared with a control group according to the following procedure:\nIn each trial 20 Cob chickens (Line 53), day old were purchased from a commercial hatchery. They were weighed, sexed and randomly assigned into adjacent pens in a room of an isolated animal house. There was an even distribution of male and female chickens. Water and feed were available ad libitum. The diet was a commercial crumble (Chick Starter, Milne Feeds: 18% crude protein) with a coccidiostat present (125 ppm Dinitolomide).\nTen chickens were administered the formulation of 0.1% w/w of normally activated antimicrobial from Example 10a in the water for 14 days through static drinkers; dose rate of 30 mg/kg/day. The other ten chickens were the Control Group.\nBoth groups of chickens were weighed on days 0, 4, 7, 11 and 14. At the completion of the trial all chickens were euthanised, and the treated chickens were autopsied post mortem. A thorough gross examination of the thoracic and abdominal cavities was performed."}}, "data": [{"compound": "O=C(O)CN(CCN(CC(=O)O)CC(=O)O)CC(=O)O", "note": "[EDTA]", "values": [{"measurement": "MKC", "setting": "[1]; inoculum 3.0 × 10^7 cfu/mL, EDTA 0.1% w/w, mix as ratio polymeric antimicrobial:preservative", "value": ">1000"}, {"measurement": "MKC", "setting": "[2]; inoculum 3.2 × 10^6 cfu/mL, EDTA 0.1% w/w", "value": 1000}, {"measurement": "MKC", "setting": "[3]; inoculum 1.0 × 10^9 cfu/mL, polymer 0.2% w/w, EDTA 0.1% w/w, mix as ratio", "value": ">1000"}, {"measurement": "MKC", "setting": "[4]; inoculum 9.4 × 10^8 cfu/mL, polymer 0.2% w/w, EDTA 0.1% w/w, mix as ratio", "value": 1000}, {"measurement": "MKC", "setting": "[5]; inoculum 1.3 × 10^9 cfu/mL, polymer 0.2% w/w, EDTA 0.1% w/w, mix as ratio", "value": ">1000"}]}, {"compound": "O=CCCCC=O", "note": "[Glutaraldehyde]", "values": [{"measurement": "MKC", "setting": "[1]; inoculum 3.3 × 10^7 cfu/mL, Glutaraldehyde 0.025% w/w start solutions, mix as ratio polymeric antimicrobial:preservative", "value": ">250"}, {"measurement": "MKC", "setting": "[2]; inoculum 3.0 × 10^6 cfu/mL, Glutaraldehyde 0.025% w/w", "value": 125}, {"measurement": "MKC", "setting": "[3]; inoculum 1.6 × 10^9 cfu/mL, polymer 0.025% w/w, Glutaraldehyde 0.025% w/w", "value": 3.5}, {"measurement": "MKC", "setting": "[4]; inoculum 1.9 × 10^9 cfu/mL, polymer 0.025% w/w, Glutaraldehyde 0.025% w/w", "value": 31}, {"measurement": "MKC", "setting": "[5]; inoculum 1.5 × 10^9 cfu/mL, polymer 0.025% w/w, Glutaraldehyde 0.025% w/w", "value": 7}]}, {"compound": "COC(=O)c1ccc(O)cc1", "note": "[Methyl Paraben]", "values": [{"measurement": "MKC", "setting": "[1]; inoculum 2.2 × 10^7 cfu/mL, Methyl Paraben 1% w/w, in 80% w/w glycerol, mix as ratio", "value": 10000}, {"measurement": "MKC", "setting": "[2]; inoculum 1.1 × 10^7 cfu/mL, Methyl Paraben 1% w/w, in 80% w/w glycerol", "value": 1250}, {"measurement": "MKC", "setting": "[3]; inoculum 9.6 × 10^8 cfu/mL, polymer 0.2% w/w, Methyl Paraben 1% w/w, in 80% w/w glycerol, mix as ratio", "value": 2500}, {"measurement": "MKC", "setting": "[4]; inoculum 1.8 × 10^9 cfu/mL, polymer 0.2% w/w, Methyl Paraben 1% w/w, in 80% w/w glycerol, mix as ratio", "value": 1250}, {"measurement": "MKC", "setting": "[5]; inoculum 1.3 × 10^9 cfu/mL, polymer 0.2% w/w, Methyl Paraben 1% w/w, in 80% w/w glycerol, mix as ratio", "value": 2500}]}, {"compound": "poly(2-propenal, 2-propenoic acid) [Example 10a]", "values": [{"measurement": "clinical or pathological signs of toxicity at gross examination post-mortem", "setting": "[6]", "value": "no clinical or pathological signs of toxicity were evident"}]}]}
